Laboratory results as given in ChEMBL document CHEMBL1201862, “PubChem BioAssay data set” (2004).
Calls of active or inactive are those of the source.

Experiments:
[1] = HepG2 cell cytotoxicity, dose response, cytotoxicity control for non-replicating M. tuberculosis project (AID 489018); assay type: functional; details: Mycobacterium tuberculosis
[2] = microbe, parasite or virus in culture; assay type: functional; details: Mycobacterium tuberculosis
[3] = A High Throughput Confirmatory Assay used to Identify Novel Compounds that Inhibit Mycobacterium Tuberculosis in the absence of Glycerol.; assay type: functional
[4] = THP-1 cell cytotoxicity, dose response, cytotoxicity control for non-replicating M. tuberculosis project (AID 489025); assay type: functional
cells [5] = assay type: functional
Insulin-degrading enzyme = target: T1, Insulin-degrading enzyme (Homo sapiens, UniProt P14735); assay: Dose Response: Fluorescence polarization-based cell-based high throughput dose response assay for inhibitors of insulin-degrading enzyme (IDE). [Related pubchem assays: 434962 (Primary screen (IDE inhibitors in singlicate)), 449730 (Counterscreen (Cytotoxicity in triplicate)), 435028 (Confirmation (IDE inhibitors in triplicate)), 434984 (Summary …; assay type: functional
T1 sequence (P14735 whole entry): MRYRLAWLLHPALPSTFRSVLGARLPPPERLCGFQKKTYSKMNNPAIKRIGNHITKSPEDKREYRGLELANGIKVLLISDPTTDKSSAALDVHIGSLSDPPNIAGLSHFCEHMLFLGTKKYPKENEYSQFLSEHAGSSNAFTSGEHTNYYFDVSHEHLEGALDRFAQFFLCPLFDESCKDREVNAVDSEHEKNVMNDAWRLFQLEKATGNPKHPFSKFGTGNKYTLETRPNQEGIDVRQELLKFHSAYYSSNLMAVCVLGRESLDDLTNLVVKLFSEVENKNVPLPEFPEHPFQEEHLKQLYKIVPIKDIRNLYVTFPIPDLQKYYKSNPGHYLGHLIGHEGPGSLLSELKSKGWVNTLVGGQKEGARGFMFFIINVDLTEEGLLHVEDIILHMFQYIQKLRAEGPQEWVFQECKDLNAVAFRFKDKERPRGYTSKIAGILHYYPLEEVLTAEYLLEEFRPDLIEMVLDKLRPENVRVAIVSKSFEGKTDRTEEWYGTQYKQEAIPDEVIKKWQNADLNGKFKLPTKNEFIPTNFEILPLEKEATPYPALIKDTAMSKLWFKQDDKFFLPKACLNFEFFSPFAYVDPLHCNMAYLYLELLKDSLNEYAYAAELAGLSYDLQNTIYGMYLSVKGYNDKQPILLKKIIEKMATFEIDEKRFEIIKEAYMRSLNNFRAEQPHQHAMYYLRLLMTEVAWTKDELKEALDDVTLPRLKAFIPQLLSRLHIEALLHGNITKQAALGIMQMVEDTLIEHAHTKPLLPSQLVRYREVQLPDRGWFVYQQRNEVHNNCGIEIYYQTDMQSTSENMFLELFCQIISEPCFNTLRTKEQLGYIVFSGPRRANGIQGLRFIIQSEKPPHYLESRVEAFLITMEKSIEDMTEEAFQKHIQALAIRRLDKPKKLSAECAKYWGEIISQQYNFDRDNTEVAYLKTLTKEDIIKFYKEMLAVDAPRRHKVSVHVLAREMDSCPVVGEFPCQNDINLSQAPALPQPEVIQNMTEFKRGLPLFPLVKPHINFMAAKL

[6] = target: G-protein coupled receptor 35 (Homo sapiens, UniProt Q9HC97); assay: GPR35 antagonists blocking zaprinast-driven arrestin recruitment, primary screen, imaging, U2OS, beta-arrestin-GFP, zaprinast agonist (AID 2058); assay type: functional;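 further: antagonist potency meaning inhibition of agonist-induced arrestin redistribution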
[7] = Counterscreen for IDE inhibitors: Luminescence-based cell-based high throughput dose response assay to identify compounds that are cytotoxic to HEK cells. [Related pubchem assays: 434962 (Primary screen (IDE inhibitors in singlicate)), 449730 (Counterscreen (Cytotoxicity in triplicate)), 435028 (Confirmation (IDE inhibitors in triplicate)) …; assay type: functional; details: HEK293
[8] = enhancers of respiration in Yfh1-depleted yeast, dose response, Friedreich's ataxia, plus single-dose screen (AID 1465); assay type: functional;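 further: yeast depleted of Yfh1p frataxin homolog grown on glycerol needing respiration; WST-1 tetrazolium dye reduction as measure of cellular dehydrogenase metabolic activity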
MDA-MB-435 = assay: cells; assay type: functional, cell-based; details: Homo sapiens
cells [9] = assay type: functional, cell-based; details: PPC-1
[10] = target: Beta-2 adrenergic receptor (Homo sapiens, UniProt P07550); assay: beta2AR agonists driving receptor internalization, dose response, cell-based, FAP fluorogen, flow cytometry, cherry pick 1 (AID 588763); assay type: functional
[11] = target: Cyclin-dependent kinase 5/CDK5 activator 1 (Homo sapiens, UniProt Q00535); assay: CDK5/p35 kinase inhibitors, dose response, biochemical, cherry-picked samples, set 2 (AID 504545)
J774.A1 = assay: Confirmation of image-based Screening Assay for Inhibitors of Phagocytosis. [Related pubchem assays (depositor defined):AID1029, AID1643]; assay type: functional, cell-based; details: Mus musculus
[12] = cytotoxicity in HEK-293T cells, dose response, cytotoxicity control for TCR NF-kB inhibitor project, luminescence, T-cell screen hits (AID 489026); assay type: functional, cell-based;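 further: cells exposed to compound about 14 hours before the viability readout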
[13] = Luminescence Cell-Based Dose Response HTS to Identify Activators of Luciferase Translation or Activity in H4 […] Cells. [Related pubchem assays: 1829 (Project Summary), 1814 (Primary HTS)]; assay type: functional
H4 = assay: Luminescence Cell-Based Dose Response HTS to Identify Activators of 5'UTR Stem-Loop Driven Prion Protein mRNA Translation in H4 Neuroglioblastoma Cells. [Related pubchem assays: 1829 (Project Summary), 1814 (Primary HTS)]; assay type: functional; details: Homo sapiens
[14] = target: Eukaryotic translation initiation factor 4H (Homo sapiens, UniProt Q15056); assay: eIF4H inhibition in translation initiation, SAR follow-up (AID 435011); assay type: functional
[15] = target: Polyadenylate-binding protein 1 (Homo sapiens, UniProt P11940); assay: PABP inhibition in translation initiation, SAR follow-up (AID 435018); assay type: functional
[16] = target: T2, Kappa-type opioid receptor (Homo sapiens, UniProt P41145); assay: SAR analysis of small molecule antagonists of the kappa opioid receptor via a luminescent beta-arrestin assay - Set 6. [Related pubchem assays (depositor defined):AID1777, AID1778, AID1785, AID1786, AID1966, AID2133, AID2136, AID2285]; assay type: functional
[17] = target: Delta-type opioid receptor (Homo sapiens, UniProt P41143); assay: SAR Analysis of Antagonists of the DOR Receptor using an Image-Based Assay - Set 3. [Related pubchem assays (depositor defined):AID1777, AID1785]; assay type: functional;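 further: U2OS cells expressing DOR1 and beta-arrestin GFP stimulated with 100 nM SNC80; imaging of GFP-tagged beta-arrestin moving into spots after receptor activation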
Mu-type opioid receptor = Mu-type opioid receptor (Homo sapiens, UniProt P35372); assay: SAR Analysis of Antagonists of the MOR Receptor using an Image-Based Assay - Set 3. [Related pubchem assays (depositor defined):AID1777, AID1785, AID1786, AID1966, AID2133, AID2136, AID2284, AID2285, AID2420]; assay type: functional
[18] = target: T2, Kappa-type opioid receptor; assay: SAR analysis of small molecule antagonists of the kappa opioid receptor via a luminescent beta-arrestin assay - Set 4. [Related pubchem assays (depositor defined):AID1777, AID1778, AID1785, AID1786, AID1966, AID2133, AID2136, AID2285]; assay type: functional
[19] = target: T2, Kappa-type opioid receptor; assay: SAR analysis of Antagonists of the Kappa Opioid Receptor (KOR) using an Image-Based Assay - Set 4. [Related pubchem assays (depositor defined):AID1777, AID1785]; assay type: functional
[20] = target: Melanin-concentrating hormone receptor 1 (Homo sapiens, UniProt Q99705); assay: Late-stage fluorescence-based counterscreen for antagonists of the G-protein coupled receptor 7 (GPR7): cell-based dose response assay to identify antagonists of the melanin-concentrating hormone receptor 1 (MCHR1). [Related pubchem assays (depositor defined):AID1861, AID1880, AID1952, AID2148, AID2251, AID2257, AID485339]; assay type: functional;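 further: stimulated with 30 nM MCH peptide agonist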
[21] = target: T3, Neuropeptides B/W receptor type 1 (Homo sapiens, UniProt P48145); assay: GPR7 antagonist potency, late-stage follow-up, cell-based, fluorescence, dose response (AID 463251); assay type: functional
T3 sequence (P48145 whole entry): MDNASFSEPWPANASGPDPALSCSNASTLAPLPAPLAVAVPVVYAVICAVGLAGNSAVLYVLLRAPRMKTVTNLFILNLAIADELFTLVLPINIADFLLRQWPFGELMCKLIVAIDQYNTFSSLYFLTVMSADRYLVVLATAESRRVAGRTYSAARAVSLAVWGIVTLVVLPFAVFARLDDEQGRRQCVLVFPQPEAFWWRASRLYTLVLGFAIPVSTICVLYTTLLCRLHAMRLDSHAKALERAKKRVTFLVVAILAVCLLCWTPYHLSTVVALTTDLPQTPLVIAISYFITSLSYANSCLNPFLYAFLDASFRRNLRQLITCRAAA

[22] = target: Heat shock cognate 71 kDa protein (Homo sapiens, UniProt P11142); assay: In Vitro Hsc70 Dose Response Fluorescence Polarization Assay. [Related pubchem assays: 1072 ]
[23] = target: Glyceraldehyde-3-phosphate dehydrogenase (Homo sapiens, UniProt P04406)
[24] = target: Heat shock 70 kDa protein 1A (Homo sapiens, UniProt P0DMV8); assay: Hsp70 inhibitors, SAR follow-up, biochemical, fluorescence polarization (AID 1072)
[25] = target: T4, Dual specificity protein phosphatase 6 (Rattus norvegicus, UniProt Q64346)
T4 sequence (Q64346 whole entry): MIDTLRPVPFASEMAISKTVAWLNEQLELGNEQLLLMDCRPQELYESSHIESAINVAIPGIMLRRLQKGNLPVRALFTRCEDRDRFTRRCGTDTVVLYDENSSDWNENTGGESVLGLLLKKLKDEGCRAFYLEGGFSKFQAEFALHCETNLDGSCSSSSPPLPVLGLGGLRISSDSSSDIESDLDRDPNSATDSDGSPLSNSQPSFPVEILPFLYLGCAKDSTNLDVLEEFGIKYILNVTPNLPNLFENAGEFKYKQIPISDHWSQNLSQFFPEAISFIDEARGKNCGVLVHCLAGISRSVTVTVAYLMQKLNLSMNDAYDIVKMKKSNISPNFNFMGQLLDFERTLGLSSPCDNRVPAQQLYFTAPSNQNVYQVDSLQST

[26] = target: T5, Tyrosine-protein phosphatase non-receptor type 7 (Homo sapiens, UniProt P35236); assay type: functional
T5 sequence (P35236 whole entry): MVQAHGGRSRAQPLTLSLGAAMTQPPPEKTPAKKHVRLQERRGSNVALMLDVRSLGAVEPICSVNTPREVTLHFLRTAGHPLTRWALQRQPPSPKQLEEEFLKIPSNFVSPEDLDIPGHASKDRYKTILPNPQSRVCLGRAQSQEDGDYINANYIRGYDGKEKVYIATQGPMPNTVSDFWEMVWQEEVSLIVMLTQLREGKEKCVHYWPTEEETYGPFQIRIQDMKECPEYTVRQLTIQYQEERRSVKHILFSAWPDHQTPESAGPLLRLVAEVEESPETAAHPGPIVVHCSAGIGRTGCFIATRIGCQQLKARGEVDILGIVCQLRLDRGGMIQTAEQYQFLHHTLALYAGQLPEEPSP

[27] = target: T4, Dual specificity protein phosphatase 6; assay type: functional
Caspase-3 = target: T6, Caspase-3 (Homo sapiens, UniProt P42574); assay: procaspase-3 activation potency of dual hits, dose response, counter-screen for dual procaspase-3/7 activator project, biochemical, absorbance, PC-3 D3A mutant (AID 504328)
T6 sequence (P42574 whole entry): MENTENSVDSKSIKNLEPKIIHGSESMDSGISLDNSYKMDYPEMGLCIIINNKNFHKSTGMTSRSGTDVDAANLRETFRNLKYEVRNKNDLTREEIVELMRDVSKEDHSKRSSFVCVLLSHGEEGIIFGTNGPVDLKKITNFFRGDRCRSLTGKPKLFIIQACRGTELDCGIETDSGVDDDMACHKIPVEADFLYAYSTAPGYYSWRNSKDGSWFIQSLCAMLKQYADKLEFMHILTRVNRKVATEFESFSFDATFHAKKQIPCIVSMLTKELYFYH

Caspase-7 = Caspase-7 (Homo sapiens, UniProt P55210); assay: procaspase-7 activators, dose response, dual procaspase-3/-7 activator project, biochemical, absorbance, human (AID 504330)

T2 sequence (P41145 whole entry): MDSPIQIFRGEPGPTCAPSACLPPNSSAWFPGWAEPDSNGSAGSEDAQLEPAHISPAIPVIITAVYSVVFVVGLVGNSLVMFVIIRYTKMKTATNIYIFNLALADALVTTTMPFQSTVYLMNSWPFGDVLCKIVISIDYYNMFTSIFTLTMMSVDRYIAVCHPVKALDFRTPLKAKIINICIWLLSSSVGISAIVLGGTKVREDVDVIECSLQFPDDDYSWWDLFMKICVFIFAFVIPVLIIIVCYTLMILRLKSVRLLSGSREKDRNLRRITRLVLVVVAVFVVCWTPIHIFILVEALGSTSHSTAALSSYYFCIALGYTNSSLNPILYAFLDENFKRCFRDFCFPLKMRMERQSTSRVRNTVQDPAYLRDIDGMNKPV
Chain of Heat shock 70 kDa protein 1A (P0DMV8 whole entry): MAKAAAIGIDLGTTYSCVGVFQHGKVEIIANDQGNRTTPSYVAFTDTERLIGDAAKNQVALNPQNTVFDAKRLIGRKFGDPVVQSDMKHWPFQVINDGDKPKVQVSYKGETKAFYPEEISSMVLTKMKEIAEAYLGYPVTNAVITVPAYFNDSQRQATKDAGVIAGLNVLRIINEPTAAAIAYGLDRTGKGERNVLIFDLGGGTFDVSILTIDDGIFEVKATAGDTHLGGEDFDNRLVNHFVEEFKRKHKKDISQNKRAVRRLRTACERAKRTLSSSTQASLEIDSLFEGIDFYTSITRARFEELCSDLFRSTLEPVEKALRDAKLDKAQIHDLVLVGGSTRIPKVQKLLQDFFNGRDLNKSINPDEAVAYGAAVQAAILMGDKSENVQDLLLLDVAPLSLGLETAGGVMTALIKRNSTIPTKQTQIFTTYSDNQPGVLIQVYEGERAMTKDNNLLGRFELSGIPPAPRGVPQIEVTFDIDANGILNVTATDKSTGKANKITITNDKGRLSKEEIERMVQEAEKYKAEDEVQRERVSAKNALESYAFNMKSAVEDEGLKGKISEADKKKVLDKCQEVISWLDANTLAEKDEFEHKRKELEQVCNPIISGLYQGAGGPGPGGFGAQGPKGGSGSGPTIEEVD
Chain of Polyadenylate-binding protein 1 (P11940 whole entry): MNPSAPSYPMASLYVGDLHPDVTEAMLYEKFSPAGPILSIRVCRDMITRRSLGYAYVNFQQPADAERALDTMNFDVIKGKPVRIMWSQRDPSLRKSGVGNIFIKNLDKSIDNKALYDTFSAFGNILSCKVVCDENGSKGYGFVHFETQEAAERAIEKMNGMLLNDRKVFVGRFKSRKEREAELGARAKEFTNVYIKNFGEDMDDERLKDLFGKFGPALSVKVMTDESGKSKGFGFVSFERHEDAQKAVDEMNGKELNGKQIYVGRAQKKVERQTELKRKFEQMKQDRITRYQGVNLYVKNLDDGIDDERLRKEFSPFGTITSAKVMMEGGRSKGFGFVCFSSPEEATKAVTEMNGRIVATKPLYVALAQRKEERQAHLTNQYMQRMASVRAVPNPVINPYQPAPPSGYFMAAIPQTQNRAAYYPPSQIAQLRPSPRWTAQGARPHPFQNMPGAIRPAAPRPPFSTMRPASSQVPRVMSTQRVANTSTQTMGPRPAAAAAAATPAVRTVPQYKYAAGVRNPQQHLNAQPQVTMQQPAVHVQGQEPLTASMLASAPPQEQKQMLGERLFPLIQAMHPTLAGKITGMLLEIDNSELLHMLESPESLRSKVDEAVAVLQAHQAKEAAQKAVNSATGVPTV
Chain of Cyclin-dependent kinase 5/CDK5 activator 1 (Q00535 whole entry): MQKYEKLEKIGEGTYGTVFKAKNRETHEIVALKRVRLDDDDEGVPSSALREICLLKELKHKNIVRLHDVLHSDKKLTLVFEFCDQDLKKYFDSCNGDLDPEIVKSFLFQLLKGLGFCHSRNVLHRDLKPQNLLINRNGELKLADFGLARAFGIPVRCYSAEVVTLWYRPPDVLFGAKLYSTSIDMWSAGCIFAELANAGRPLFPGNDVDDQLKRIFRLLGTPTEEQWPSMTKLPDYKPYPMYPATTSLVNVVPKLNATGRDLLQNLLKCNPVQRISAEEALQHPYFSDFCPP
Chain of Cyclin-dependent kinase 5/CDK5 activator 1 (Q15078 whole entry, further chain): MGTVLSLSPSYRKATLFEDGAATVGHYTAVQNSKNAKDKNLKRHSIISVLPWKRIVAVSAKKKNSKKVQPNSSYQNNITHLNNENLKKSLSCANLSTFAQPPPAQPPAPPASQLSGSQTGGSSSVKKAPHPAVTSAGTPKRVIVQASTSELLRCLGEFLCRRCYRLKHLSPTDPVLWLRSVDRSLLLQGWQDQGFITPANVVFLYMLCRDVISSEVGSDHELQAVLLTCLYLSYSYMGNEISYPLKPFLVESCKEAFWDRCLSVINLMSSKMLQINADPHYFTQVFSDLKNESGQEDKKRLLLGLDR
Chain of G-protein coupled receptor 35 (Q9HC97 whole entry): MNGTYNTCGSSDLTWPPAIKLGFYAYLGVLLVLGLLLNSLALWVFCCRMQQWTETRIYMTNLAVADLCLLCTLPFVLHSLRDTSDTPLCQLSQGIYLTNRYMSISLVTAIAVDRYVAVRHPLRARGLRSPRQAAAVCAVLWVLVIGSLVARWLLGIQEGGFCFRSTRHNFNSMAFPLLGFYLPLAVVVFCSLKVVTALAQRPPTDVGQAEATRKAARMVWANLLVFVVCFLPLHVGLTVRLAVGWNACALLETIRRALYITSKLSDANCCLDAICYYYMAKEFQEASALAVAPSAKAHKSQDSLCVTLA
Chain of Glyceraldehyde-3-phosphate dehydrogenase (P04406 whole entry): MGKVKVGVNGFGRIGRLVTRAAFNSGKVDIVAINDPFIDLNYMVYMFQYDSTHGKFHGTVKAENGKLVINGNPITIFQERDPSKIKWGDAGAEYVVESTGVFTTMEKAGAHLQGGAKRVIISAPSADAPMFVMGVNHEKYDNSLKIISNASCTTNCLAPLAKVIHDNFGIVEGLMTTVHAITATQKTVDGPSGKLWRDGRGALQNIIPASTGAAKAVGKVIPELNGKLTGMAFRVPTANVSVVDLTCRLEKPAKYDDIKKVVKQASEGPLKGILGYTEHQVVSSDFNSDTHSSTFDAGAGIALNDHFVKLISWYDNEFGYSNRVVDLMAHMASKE
Chain of Delta-type opioid receptor (P41143 whole entry): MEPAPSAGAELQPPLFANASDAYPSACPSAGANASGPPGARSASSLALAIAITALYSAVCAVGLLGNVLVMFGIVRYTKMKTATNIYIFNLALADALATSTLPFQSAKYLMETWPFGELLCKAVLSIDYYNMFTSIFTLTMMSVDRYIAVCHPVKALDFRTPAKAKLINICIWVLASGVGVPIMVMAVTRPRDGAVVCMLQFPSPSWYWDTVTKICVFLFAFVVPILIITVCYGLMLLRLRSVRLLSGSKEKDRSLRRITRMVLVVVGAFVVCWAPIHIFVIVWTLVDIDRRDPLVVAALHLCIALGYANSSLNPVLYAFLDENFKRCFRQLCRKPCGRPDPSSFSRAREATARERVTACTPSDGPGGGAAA
Chain of Heat shock cognate 71 kDa protein (P11142 whole entry): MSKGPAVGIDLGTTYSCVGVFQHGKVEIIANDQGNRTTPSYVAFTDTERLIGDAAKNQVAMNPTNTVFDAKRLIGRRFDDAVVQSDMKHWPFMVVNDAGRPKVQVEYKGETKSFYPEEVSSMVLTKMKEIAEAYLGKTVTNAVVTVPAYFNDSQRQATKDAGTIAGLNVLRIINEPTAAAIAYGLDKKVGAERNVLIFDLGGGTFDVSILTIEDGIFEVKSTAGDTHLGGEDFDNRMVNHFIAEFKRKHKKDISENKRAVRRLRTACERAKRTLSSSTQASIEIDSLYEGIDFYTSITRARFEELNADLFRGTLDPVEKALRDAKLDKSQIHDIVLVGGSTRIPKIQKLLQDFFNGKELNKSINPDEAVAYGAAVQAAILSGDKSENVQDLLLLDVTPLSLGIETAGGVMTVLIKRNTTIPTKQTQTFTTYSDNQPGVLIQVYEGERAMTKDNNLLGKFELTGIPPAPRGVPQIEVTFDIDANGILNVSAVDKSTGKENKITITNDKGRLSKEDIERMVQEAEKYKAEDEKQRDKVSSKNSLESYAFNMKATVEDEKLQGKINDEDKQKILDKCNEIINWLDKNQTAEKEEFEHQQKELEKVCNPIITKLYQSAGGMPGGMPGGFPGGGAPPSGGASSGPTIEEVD
Chain of Melanin-concentrating hormone receptor 1 (Q99705 whole entry): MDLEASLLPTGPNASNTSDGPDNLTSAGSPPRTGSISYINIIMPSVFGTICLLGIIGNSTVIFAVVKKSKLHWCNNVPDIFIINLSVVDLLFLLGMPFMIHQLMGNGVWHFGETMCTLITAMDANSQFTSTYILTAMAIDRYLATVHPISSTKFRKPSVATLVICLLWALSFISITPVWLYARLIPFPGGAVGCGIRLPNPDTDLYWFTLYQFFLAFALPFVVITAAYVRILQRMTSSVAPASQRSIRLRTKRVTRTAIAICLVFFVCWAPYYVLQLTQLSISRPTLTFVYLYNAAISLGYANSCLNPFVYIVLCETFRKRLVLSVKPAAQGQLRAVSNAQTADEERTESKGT
Chain of Beta-2 adrenergic receptor (P07550 whole entry): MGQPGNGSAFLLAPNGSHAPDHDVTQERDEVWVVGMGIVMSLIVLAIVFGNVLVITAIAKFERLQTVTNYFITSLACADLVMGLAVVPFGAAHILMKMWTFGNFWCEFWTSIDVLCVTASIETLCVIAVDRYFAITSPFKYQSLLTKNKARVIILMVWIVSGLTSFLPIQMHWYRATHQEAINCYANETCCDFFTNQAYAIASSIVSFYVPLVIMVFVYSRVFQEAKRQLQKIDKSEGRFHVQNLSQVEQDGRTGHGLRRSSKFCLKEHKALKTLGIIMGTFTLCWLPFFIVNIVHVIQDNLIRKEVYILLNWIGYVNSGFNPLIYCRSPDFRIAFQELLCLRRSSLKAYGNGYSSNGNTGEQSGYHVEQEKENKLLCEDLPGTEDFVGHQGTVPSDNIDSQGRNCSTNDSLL

## CSc1ccc(NC(=O)Nc2cccn(Cc3ccccc3)c2=O)cc1
[1]
  CC50: > 20 µM (active)
[2]
  CC50: > 40 µM (active)
[3]
  IC50: > 100 µM (active)
[4]
  CC50: > 40 µM (active)
Cells [5]
  IC50: 11.4 µM (active)

## N#C/C(=C\c1ccc(N2CCCCC2)o1)C(N)=O
Insulin-degrading enzyme
  IC50: 8.72 µM (active)
[6]
  IC50: 6.55 µM (active)
[7]
  IC50: > 55.7 µM (not active)
[8]
  EC50: > 100 µM (active)

## CC(Sc1nc(-c2ccccc2)cc(C(F)(F)F)n1)C(=O)N1CCCC1 (centres undefined)
MDA-MB-435
  IC50: > 10 µM (inactive)
Cells [9]
  IC50: > 10 µM (inactive)
[10]
  EC50: 0.243 µM (active)

## CC(C)Oc1ccc(NC(=O)Oc2ccccc2)cc1
[11]
  AC50: 129 µM (active)

## Cc1cc(=O)oc2cc(OCC3CC(c4ccccc4Cl)=NO3)ccc12 (centres undefined)
J774.A1
  IC50: > 25 µM (inactive)
[12]
  IC50: > 80 µM (inactive)
[13]
  EC50: 11.7 µM (active)
H4
  EC50: > 120 µM (not active)

## COc1cccc(/C=C2/NC(=O)N(CC(=O)Nc3ccc(C)cc3)C2=O)c1OCc1cccc(C(=O)O)c1
[14]
  IC50: 10.6 µM (active)
[15]
  IC50: > 100 µM (inactive)

## CC(C)N(CCNC(=O)c1ccc(CNS(=O)(=O)c2ccc(C3CCCCC3)cc2)cc1)Cc1ccccc1
[16]
  IC50: > 20 µM (inactive)
[17]
  IC50: > 32 µM (inactive)
Mu-type opioid receptor
  IC50: 2.47 µM (active)
[18]
  IC50: > 20 µM (inactive)
[19]
  IC50: 1.22 µM (active)

## Cc1ccc(-n2ncc(Cl)c(Oc3ccc(F)cc3C)c2=O)cc1
[20]
  IC50: 17 µM (inactive)
[21]
  IC50: 10 µM (active)

## O=C(O)c1ccc2c(c1)C1C=CCC1C(C(=O)O)N2 (centres undefined)
[22]
  IC50: > 100 µM (not active)
[23]
  IC50: > 100 µM (not active)
[24]
  IC50: 2.42 µM (active)
[25]
  IC50: 17.8 µM (active)
[26]
  IC50: 2.51 µM (active)
[27]
  IC50: 15.5 µM (active)

## COc1ccc(C(=O)N/N=C/c2ccc3cccc(OCc4ccccc4)c3n2)cc1
Caspase-3
  EC50: > 85.3 µM (inactive)
Caspase-7
  EC50: > 85.3 µM (inactive)
